Reference: ChEMBL document CHEMBL1201862, “PubChem BioAssay data set” (2004)
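Where inhibition never reached the appropriate level, the endpoint shown equals the highest concentration tested. Otherwise, values were interpolated linearly from a five-concentration, 48-hour dose response in 96-well plates. At the GI50, growth is halved.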 Active and inactive are the calls of the source. Rule as the data show it: active = GI50 up to about 1.1 µM and inactive = higher.

How the values were obtained:
Assay in all cases: inhibition of tumour cell growth, NCI panel, 48 h
A498 = system: A498
ACHN = system: ACHN
CAKI-1 = system: CAKI-1
HL-60 = system: HL-60
HOP-62 = system: HOP-62
HOP-92 = system: HOP-92
K562 = system: K562
LOX IMVI = system: LOX IMVI
Malme-3M = system: Malme-3M
RPMI-8226 = system: RPMI-8226
SF-268 = system: SF-268
SK-MEL-2 = system: SK-MEL-2
SK-MEL-5 = system: SK-MEL-5
U-251 = system: U-251
UO-31 = system: UO-31
M14 = system: M14
OVCAR-4 = system: OVCAR-4
SR = system: SR

| Compound | GI50 (A498) | GI50 (ACHN) | GI50 (CAKI-1) | GI50 (HL-60) | GI50 (HOP-62) | GI50 (HOP-92) | GI50 (K562) | GI50 (LOX IMVI) | GI50 (Malme-3M) | GI50 (RPMI-8226) | GI50 (SF-268) | GI50 (SK-MEL-2) | GI50 (SK-MEL-5) | GI50 (U-251) | GI50 (UO-31) | GI50 (M14) | GI50 (OVCAR-4) | GI50 (SR) |
| --- | --- | --- | --- | --- | --- | --- | --- | --- | --- | --- | --- | --- | --- | --- | --- | --- | --- | --- |
| CC(=O)NNc1nc(C)c(C(=O)/C=C/c2ccccc2Cl)s1 | > 100 µM (inactive) | > 100 µM (inactive) | > 100 µM (inactive) | > 100 µM (inactive) | > 100 µM (inactive) | > 100 µM (inactive) | > 100 µM (inactive) | > 100 µM (inactive) | > 100 µM (inactive) | > 100 µM (inactive) | > 100 µM (inactive) | > 100 µM (inactive) | > 100 µM (inactive) | > 100 µM (inactive) | > 100 µM (inactive) | – | – | – |
| Nc1ccc(C(=O)N/C(=C\C=C\c2ccco2)c2nc3c4c(ccc3[nH]2)C(=O)c2ccccc2C4=O)cc1 | 22.4 µM (inactive) | 10.8 µM (inactive) | 24.6 µM (inactive) | – | 56.2 µM (inactive) | 37 µM (inactive) | 26.8 µM (inactive) | 25.5 µM (inactive) | 85.9 µM (inactive) | 3.21 µM (inactive) | 10.2 µM (inactive) | 26.5 µM (inactive) | 38 µM (inactive) | 31.3 µM (inactive) | 2.34 µM (inactive) | 55 µM (inactive) | 52.4 µM (inactive) | – |
| CC(C)c1cccc(C(C)C)c1NC(=O)C(=O)Cc1nc2ccc([N+](=O)[O-])cc2nc1O | 58.5 µM (inactive) | 54.5 µM (inactive) | 75.3 µM (inactive) | > 100 µM (inactive) | – | 50.6 µM (inactive) | 30.2 µM (inactive) | 23.2 µM (inactive) | > 100 µM (inactive) | – | – | 61 µM (inactive) | > 10 µM (inactive) | – | > 100 µM (inactive) | 28.1 µM (inactive) | 64.3 µM (inactive) | – |
| Cc1ccc2nc3c(C)cc(=O)cc-3sc2c1 | – | 17.7 µM (inactive) | 19.3 µM (inactive) | 2.45 µM (inactive) | 27.5 µM (inactive) | 34.2 µM (inactive) | 12.6 µM (inactive) | – | 27.3 µM (inactive) | – | 25.6 µM (inactive) | 20 µM (inactive) | 15.5 µM (inactive) | 31.8 µM (inactive) | 32 µM (inactive) | 19.6 µM (inactive) | 16.7 µM (inactive) | 19.1 µM (inactive) |
| O=C(N/C(=C\c1ccc([N+](=O)[O-])cc1)c1nc2c(O)nc(S)nc2[nH]1)c1ccccc1 | – | > 100 µM (inactive) | > 100 µM (inactive) | – | – | 43.7 µM (inactive) | 73.1 µM (inactive) | – | > 100 µM (inactive) | – | > 100 µM (inactive) | > 100 µM (inactive) | > 100 µM (inactive) | > 100 µM (inactive) | 30.8 µM (inactive) | > 100 µM (inactive) | 99.5 µM (inactive) | > 100 µM (inactive) |
| c1ccc(C2=NN(c3ccccc3)C3(S2)SC(c2ccccc2)(c2ccccc2)c2ccccc23)cc1 (centres undefined) | > 100 µM (inactive) | > 100 µM (inactive) | > 100 µM (inactive) | 0.804 µM (active) | > 100 µM (inactive) | > 100 µM (inactive) | > 100 µM (inactive) | > 100 µM (inactive) | > 100 µM (inactive) | > 100 µM (inactive) | > 100 µM (inactive) | > 100 µM (inactive) | > 100 µM (inactive) | > 100 µM (inactive) | > 100 µM (inactive) | > 100 µM (inactive) | > 100 µM (inactive) | – |
| Cc1ccc(NC(=O)c2nc(S)nc(N)c2-c2ccccc2C)cc1C | > 100 µM (inactive) | > 100 µM (inactive) | > 100 µM (inactive) | – | – | > 100 µM (inactive) | > 100 µM (inactive) | > 100 µM (inactive) | > 100 µM (inactive) | > 100 µM (inactive) | > 100 µM (inactive) | > 100 µM (inactive) | > 100 µM (inactive) | > 100 µM (inactive) | > 100 µM (inactive) | > 100 µM (inactive) | > 10 µM (inactive) | – |
